Source: patent US20060099161A1, “Skin preparations for external use” (priority 2002, published 2006)

Experiments:
[1] = Visual evaluation of discoloration of powder lotion-type antiperspirant lotions; format: physicochemical
Description: Recipes shown in Table 1-1 and Table 1-2 were used to prepare powder lotion-type antiperspirant lotions and the degree of discoloration was evaluated visually. For Comparative examples, a recipe containing no trisodium ethylenediaminehydroxyethyl triacetate and a recipe containing a chelating agent EDTA-3Na.2H2O instead of trisodium ethylenediaminehydroxyethyl triacetate were investigated. The degree of discoloration was evaluated by giving ◯ to those that are within the acceptable range for skin treatment composition, and × to those that are outside of this range.

[2] = Staining of clothing after application, sunlight exposure and washing (visual observation); format: physicochemical
Description: Recipes shown in Table 3-1 and Table 3-2 were used to prepare powder lotion-type antiperspirant lotions and a prescribed amount (4 micrograms/cm^2) is applied on clothing. The clothing was exposed to sunlight (10 minutes) and washed with common laundry detergent in a washing machine; the degree of staining was then evaluated by visual observation. For Comparative examples, recipes not containing polyoxyethylene polyoxypropylene 2-decyltetradecyl ether (20-28 E.O.) (10-16 P.O.) and recipes containing polyoxyethylene (E.O. 60) were investigated. The degree of staining was evaluated by giving ◯ to those that are within the acceptable range for skin treatment compositions, and × to those that are outside of this range.

anti-staining effect of the ingredient in skin treatment compositions containing anti-bacterial zeolite [2]	Compound	anti-discoloration effect of the ingredient in skin treatment compositions containing anti-bacterial zeolite [1]
	O=C([O-])CN(CCN(CC(=O)[O-])CC(=O)O)CC(=O)[O-].[Na+].[Na+].[Na+] [EDTA-3Na]	do not have the anti-discoloration effect
	O=C([O-])CN(CCO)CCN(CC(=O)[O-])CC(=O)[O-].[Na+].[Na+].[Na+] [trisalt ethylenediaminehydroxyethyl triacetate]	acts as an anti-discoloration agent
do not have an anti-staining effect	polyoxyethylene (E.O. 60) hydrogenated castor oil	
acts as an anti-staining agent	polyoxyethylene polyoxypropylene 2-decyltetradecyl ether (20-28 E.O.) (10-16 P.O.)	
